# Results from PubChem BioAssay (NCI).
#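 Briefly, cells in 96-well plates were exposed to five compound concentrations for 48 h, and endpoints were estimated by linear interpolation. GI50 marks 50% less growth. TGI marks complete inhibition of growth.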
# Experiments:
# Experiment in all cases: NCI tumour cell line growth inhibition, 48 h
# HS 578T breast = system: HS 578T breast
# NCI-H460 lung = system: NCI-H460 lung
# SF-295 CNS = system: SF-295 CNS
# NCI-H226 lung = system: NCI-H226 lung
# SNB-19 CNS = system: SNB-19 CNS
# CAKI-1 renal = system: CAKI-1 renal
# HOP-62 NSCLC = system: HOP-62 NSCLC
# HCT-116 colon = system: HCT-116 colon
# DU-145 prostate = system: DU-145 prostate
# UO-31 renal = system: UO-31 renal
# SK-MEL-2 melanoma = system: SK-MEL-2 melanoma
# UACC-257 melanoma = system: UACC-257 melanoma
# BT-549 breast = system: BT-549 breast
# CCRF-CEM leukemia = system: CCRF-CEM leukemia
# A549 NSCLC = system: A549 NSCLC
# 786-0 renal = system: 786-0 renal
# A498 renal = system: A498 renal
# K-562 leukemia = system: K-562 leukemia
# MDA-MB-435 = system: MDA-MB-435
# HCC-2998 colon = system: HCC-2998 colon
# ACHN renal = system: ACHN renal
# HCT-15 colon = system: HCT-15 colon
# SR leukemia = system: SR leukemia
# KM12 colon = system: KM12 colon
# U251 CNS = system: U251 CNS
# OVCAR-3 ovarian = system: OVCAR-3 ovarian
# MOLT-4 leukemia = system: MOLT-4 leukemia
# SNB-75 CNS = system: SNB-75 CNS
# T-47D breast = system: T-47D breast
# HOP-92 NSCLC = system: HOP-92 NSCLC
# OVCAR-8 ovarian = system: OVCAR-8 ovarian
# SK-OV-3 ovarian = system: SK-OV-3 ovarian
# M14 melanoma = system: M14 melanoma
# OVCAR-5 ovarian = system: OVCAR-5 ovarian
# NCI/ADR-RES ovarian = system: NCI/ADR-RES ovarian
# UACC-62 melanoma = system: UACC-62 melanoma
# IGROV1 ovarian = system: IGROV1 ovarian
# RXF 393 renal = system: RXF 393 renal
# RPMI-8226 leukemia = system: RPMI-8226 leukemia
# SK-MEL-5 melanoma = system: SK-MEL-5 melanoma
# HT29 colon = system: HT29 colon
# OVCAR-4 ovarian = system: OVCAR-4 ovarian
# TK-10 renal = system: TK-10 renal
# COLO 205 colon = system: COLO 205 colon
# MCF7 breast = system: MCF7 breast
# EKVX NSCLC = system: EKVX NSCLC
# SW-620 colon = system: SW-620 colon
# MDA-MB-231 breast = system: MDA-MB-231 breast
# PC-3 prostate = system: PC-3 prostate
# SF-539 CNS = system: SF-539 CNS
# SK-MEL-28 melanoma = system: SK-MEL-28 melanoma
# SF-268 CNS = system: SF-268 CNS
# SN12C renal = system: SN12C renal
# HL-60(TB) leukemia = system: HL-60(TB) leukemia
# NCI-H23 lung = system: NCI-H23 lung
# MALME-3M melanoma = system: MALME-3M melanoma
compound,measurement,setting,value
COc1ccccc1-c1nccc(COc2ccccc2C[C@@H](Oc2ncnc3sc(-c4ccc(F)cc4)c(-c4ccc(OCCN5CCN(C)CC5)c(Cl)c4C)c23)C(=O)O)n1,GI50,HS 578T breast,0.515 µM
same,TGI,HS 578T breast,3.29 µM
same,GI50,NCI-H460 lung,2.09 µM
same,TGI,NCI-H460 lung,5.84 µM
same,GI50,SF-295 CNS,1.89 µM
same,TGI,SF-295 CNS,3.91 µM
same,GI50,NCI-H226 lung,3 µM
same,TGI,NCI-H226 lung,10.9 µM
same,GI50,SNB-19 CNS,2.05 µM
same,TGI,SNB-19 CNS,4.58 µM
same,GI50,CAKI-1 renal,2.66 µM
same,TGI,CAKI-1 renal,9.89 µM
same,GI50,HOP-62 NSCLC,2.39 µM
same,TGI,HOP-62 NSCLC,7.21 µM
same,GI50,HCT-116 colon,2.43 µM
same,TGI,HCT-116 colon,6.55 µM
same,GI50,DU-145 prostate,5.84 µM
same,TGI,DU-145 prostate,13.9 µM
same,GI50,UO-31 renal,6.12 µM
same,TGI,UO-31 renal,17.5 µM
same,GI50,SK-MEL-2 melanoma,< 0.0114 µM
same,TGI,SK-MEL-2 melanoma,0.0367 µM
same,GI50,UACC-257 melanoma,3.01 µM
same,TGI,UACC-257 melanoma,11.2 µM
same,GI50,BT-549 breast,1.03 µM
same,TGI,BT-549 breast,2.59 µM
same,GI50,CCRF-CEM leukemia,0.804 µM
same,TGI,CCRF-CEM leukemia,> 35.7 µM
same,GI50,A549 NSCLC,10 µM
same,TGI,A549 NSCLC,31.7 µM
same,GI50,786-0 renal,2.01 µM
same,TGI,786-0 renal,4.2 µM
same,TGI,A498 renal,0.522 µM
same,GI50,K-562 leukemia,3.01 µM
same,TGI,K-562 leukemia,> 33.6 µM
same,GI50,MDA-MB-435,0.45 µM
same,TGI,MDA-MB-435,2.21 µM
same,GI50,HCC-2998 colon,1.31 µM
same,TGI,HCC-2998 colon,2.78 µM
same,GI50,ACHN renal,5.07 µM
same,TGI,ACHN renal,15.3 µM
same,GI50,HCT-15 colon,5.82 µM
same,TGI,HCT-15 colon,16.4 µM
same,GI50,SR leukemia,0.034 µM
same,TGI,SR leukemia,0.714 µM
same,GI50,KM12 colon,3.33 µM
same,TGI,KM12 colon,12.1 µM
same,GI50,U251 CNS,1.88 µM
same,TGI,U251 CNS,4.15 µM
same,GI50,OVCAR-3 ovarian,2.51 µM
same,TGI,OVCAR-3 ovarian,6.99 µM
same,GI50,MOLT-4 leukemia,0.0436 µM
same,TGI,MOLT-4 leukemia,1.54 µM
same,GI50,SNB-75 CNS,0.0348 µM
same,TGI,SNB-75 CNS,1.29 µM
same,GI50,T-47D breast,3.49 µM
same,TGI,T-47D breast,23 µM
same,GI50,HOP-92 NSCLC,1.41 µM
same,TGI,HOP-92 NSCLC,3.27 µM
same,GI50,OVCAR-8 ovarian,2.9 µM
same,TGI,OVCAR-8 ovarian,> 28.4 µM
same,GI50,SK-OV-3 ovarian,4.04 µM
same,TGI,SK-OV-3 ovarian,16.5 µM
same,GI50,M14 melanoma,1.73 µM
same,TGI,M14 melanoma,4.05 µM
same,GI50,OVCAR-5 ovarian,2.12 µM
same,TGI,OVCAR-5 ovarian,6.25 µM
same,GI50,NCI/ADR-RES ovarian,18.2 µM
same,TGI,NCI/ADR-RES ovarian,> 100 µM
same,GI50,UACC-62 melanoma,0.0761 µM
same,TGI,UACC-62 melanoma,1.41 µM
same,GI50,IGROV1 ovarian,2.27 µM
same,TGI,IGROV1 ovarian,6.08 µM
same,GI50,RXF 393 renal,0.61 µM
same,TGI,RXF 393 renal,2.16 µM
same,GI50,RPMI-8226 leukemia,< 0.0104 µM
same,TGI,RPMI-8226 leukemia,0.285 µM
same,GI50,SK-MEL-5 melanoma,1.71 µM
same,TGI,SK-MEL-5 melanoma,3.12 µM
same,GI50,HT29 colon,2.65 µM
same,TGI,HT29 colon,7.09 µM
same,GI50,OVCAR-4 ovarian,3.55 µM
same,TGI,OVCAR-4 ovarian,14.6 µM
same,GI50,TK-10 renal,3.46 µM
same,TGI,TK-10 renal,14.9 µM
same,GI50,COLO 205 colon,1.86 µM
same,TGI,COLO 205 colon,4.33 µM
same,GI50,MCF7 breast,0.0786 µM
same,TGI,MCF7 breast,1.95 µM
same,GI50,EKVX NSCLC,1.32 µM
same,TGI,EKVX NSCLC,5.03 µM
same,GI50,SW-620 colon,2.34 µM
same,TGI,SW-620 colon,6.88 µM
same,GI50,MDA-MB-231 breast,1.61 µM
same,TGI,MDA-MB-231 breast,3.29 µM
same,GI50,PC-3 prostate,1.96 µM
same,TGI,PC-3 prostate,4.81 µM
same,GI50,SF-539 CNS,1.21 µM
same,TGI,SF-539 CNS,2.59 µM
same,GI50,SK-MEL-28 melanoma,1.76 µM
same,TGI,SK-MEL-28 melanoma,3.36 µM
same,GI50,SF-268 CNS,3.69 µM
same,TGI,SF-268 CNS,17.5 µM
same,GI50,SN12C renal,1.75 µM
same,TGI,SN12C renal,3.83 µM
same,GI50,HL-60(TB) leukemia,0.0205 µM
same,TGI,HL-60(TB) leukemia,0.0524 µM
same,GI50,NCI-H23 lung,1.11 µM
same,TGI,NCI-H23 lung,3.84 µM
same,GI50,MALME-3M melanoma,1.63 µM
same,TGI,MALME-3M melanoma,3.37 µM
